Data taken from article PMC3994528, “GE23077 binds to the RNA polymerase ‘i’ and ‘i+1’ sites and prevents the binding of initiating nucleotides” (eLife, 2014).
Converted amounts (≈) assume the structure as drawn.

Columns and labels:
S. pyogenes = assay: Resistance levels, chromosomal GE^R mutants, broth microdilution; type: cell-based, Streptococcus pyogenes
[1] = target: T1, Mycobacterium tuberculosis RNAP (Mycobacterium tuberculosis, UniProt P9WGY7+P9WGY9); assay: biochemical
T1 construct: made in house

[2] = target: T2, E. coli RNAP holoenzyme ([F^517]σ^70-RNAP holoenzyme) (Escherichia coli, UniProt P0A8T7+P0A8V2); assay: Fluorescence-detected RNAP-Rif interaction assay; type: binding
T2 construct: made in house
Experimental: (§1) RNAP-Rif interaction assays were performed as in [Feklistov et al. (2008)]. The assays monitored the quenching of the fluorescence emission of fluorescein incorporated into RNAP holoenzyme at σ^70 residue 517 (serving as a fluorescence-resonance-energy-transfer donor) by the naphthyl moiety of Rif (serving as a fluorescence-resonance-energy-transfer acceptor; [Knight et al., 2005]; [Feklistov et al., 2008]). Fluorescence measurements were performed using a QuantaMaster QM1 spectrofluorometer (PTI, Edison, NJ) (excitation wavelength = 480 nm; emission wavelength = 530 nm; and excitation and emission slit widths = 5 nm).
For determination of association kinetics, 720 μl 2 nM [F^517]σ^70-RNAP holoenzyme and 0-2 μM GE in 40 mM Tris–HCl, pH 8.0, 100 mM NaCl, 10 mM MgCl2, 1 mM DTT, 0.02% Tween-20, and 5% glycerol was incubated 15 min at 24°C and then mixed with 30 μl 0.01–0.5 μM Rif in the same buffer at 24°C in a cuvette chamber with a mixing dead time ∼0.5 s, and fluorescence emission intensities were monitored for 30 min at 24°C. On-rates for RNAP-Rif interaction, kon, were calculated by fitting data to: I=(I0−I∞)exp(−kobst)+I∞ where kobs is the observed association rate constant at a specified Rif concentration, I is the fluorescence emission intensity at time t, Io is the fluorescence emission intensity at t = 0, and I∞ is the fluorescence emission intensity at t = ∞; followed by fitting the Rif-concentration-dependence of kobs to: kobs=kon[Rif]+koff where koff is ≥0 but is otherwise unconstrained.
Off-rates for RNAP-Rif interaction, koff, were calculated as: I=I0+(I∞−I0)[1−exp(−kofft)] where I is the fluorescence emission intensity at time t, Io is the fluorescence intensity at t = 0, and I∞ is the fluorescence intensity at t = ∞.
Equilibrium dissociation constants for RNAP-Rif interaction, Kd, were calculated as koff/kon.
(§2) The equilibrium dissociation constant for RNAP-GE interaction, Ki, was calculated from the association-kinetics data, by fitting the GE-concentration-dependence of I∞ to: I∞=(I∞,max[GE])/(Ki+[GE])

E. coli RNAP holoenzyme [3] = target: T3, E. coli RNAP holoenzyme (Escherichia coli, UniProt P0A8T7+P0A8V2); type: biochemical; details: 0.5 μM GE or 2.2 μM Rif; ApA primer and UTP
E. coli RNAP holoenzyme [4] = target: T3, E. coli RNAP holoenzyme; type: biochemical; details: halted TEC containing 29 nt RNA product
E. coli RNAP holoenzyme [5] = target: T3, E. coli RNAP holoenzyme; type: biochemical; details: 0.5 μM GE; T7 A1 promoter
[6] = target: T4, Staphylococcus aureus RNAP (Staphylococcus aureus, UniProt P47768+Q2G0N5); assay: biochemical
T4 construct: made in house

[7] = target: T5, Thermus thermophilus RNAP (Thermus thermophilus, UniProt Q8RQE8+Q8RQE9); assay: biochemical
T5 construct: made in house
T5 sequence (Q8RQE8 whole entry): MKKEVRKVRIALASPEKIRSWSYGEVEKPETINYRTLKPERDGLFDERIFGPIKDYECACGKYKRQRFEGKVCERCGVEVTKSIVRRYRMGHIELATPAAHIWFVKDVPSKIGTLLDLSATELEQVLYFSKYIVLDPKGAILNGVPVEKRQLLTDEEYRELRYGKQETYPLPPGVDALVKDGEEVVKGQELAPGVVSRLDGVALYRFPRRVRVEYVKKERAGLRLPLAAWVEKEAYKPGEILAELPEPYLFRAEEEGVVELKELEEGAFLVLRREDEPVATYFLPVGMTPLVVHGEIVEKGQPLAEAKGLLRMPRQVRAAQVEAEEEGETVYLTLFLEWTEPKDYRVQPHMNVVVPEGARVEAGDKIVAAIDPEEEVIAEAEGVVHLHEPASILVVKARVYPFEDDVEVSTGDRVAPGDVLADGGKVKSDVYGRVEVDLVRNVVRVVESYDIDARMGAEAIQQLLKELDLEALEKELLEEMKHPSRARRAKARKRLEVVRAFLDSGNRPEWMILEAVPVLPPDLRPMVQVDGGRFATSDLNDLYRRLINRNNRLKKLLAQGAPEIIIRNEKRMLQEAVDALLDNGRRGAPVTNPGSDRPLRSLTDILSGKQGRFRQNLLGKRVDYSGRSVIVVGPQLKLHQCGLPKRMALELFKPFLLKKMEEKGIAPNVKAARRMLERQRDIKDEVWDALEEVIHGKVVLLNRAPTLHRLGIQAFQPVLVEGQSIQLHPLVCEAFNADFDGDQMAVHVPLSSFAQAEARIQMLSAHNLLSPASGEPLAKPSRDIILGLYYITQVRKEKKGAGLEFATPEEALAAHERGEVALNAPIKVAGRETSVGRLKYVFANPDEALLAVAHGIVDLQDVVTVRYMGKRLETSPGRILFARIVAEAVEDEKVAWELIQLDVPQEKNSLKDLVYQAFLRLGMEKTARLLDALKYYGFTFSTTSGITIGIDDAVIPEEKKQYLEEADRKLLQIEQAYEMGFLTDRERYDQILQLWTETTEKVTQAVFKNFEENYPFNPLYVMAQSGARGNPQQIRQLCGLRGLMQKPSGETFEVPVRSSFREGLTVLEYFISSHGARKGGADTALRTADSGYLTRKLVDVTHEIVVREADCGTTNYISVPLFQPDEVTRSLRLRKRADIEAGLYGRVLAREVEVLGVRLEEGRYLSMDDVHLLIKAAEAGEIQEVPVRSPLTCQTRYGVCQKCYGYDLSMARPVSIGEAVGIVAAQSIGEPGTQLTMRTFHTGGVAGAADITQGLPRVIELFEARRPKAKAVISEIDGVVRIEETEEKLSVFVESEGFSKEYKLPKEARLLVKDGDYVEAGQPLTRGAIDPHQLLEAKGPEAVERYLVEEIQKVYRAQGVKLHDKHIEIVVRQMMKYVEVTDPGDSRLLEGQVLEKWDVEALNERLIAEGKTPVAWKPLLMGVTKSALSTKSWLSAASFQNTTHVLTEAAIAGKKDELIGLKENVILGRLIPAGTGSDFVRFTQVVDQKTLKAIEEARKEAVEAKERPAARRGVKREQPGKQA
T5 sequence (Q8RQE9 whole entry): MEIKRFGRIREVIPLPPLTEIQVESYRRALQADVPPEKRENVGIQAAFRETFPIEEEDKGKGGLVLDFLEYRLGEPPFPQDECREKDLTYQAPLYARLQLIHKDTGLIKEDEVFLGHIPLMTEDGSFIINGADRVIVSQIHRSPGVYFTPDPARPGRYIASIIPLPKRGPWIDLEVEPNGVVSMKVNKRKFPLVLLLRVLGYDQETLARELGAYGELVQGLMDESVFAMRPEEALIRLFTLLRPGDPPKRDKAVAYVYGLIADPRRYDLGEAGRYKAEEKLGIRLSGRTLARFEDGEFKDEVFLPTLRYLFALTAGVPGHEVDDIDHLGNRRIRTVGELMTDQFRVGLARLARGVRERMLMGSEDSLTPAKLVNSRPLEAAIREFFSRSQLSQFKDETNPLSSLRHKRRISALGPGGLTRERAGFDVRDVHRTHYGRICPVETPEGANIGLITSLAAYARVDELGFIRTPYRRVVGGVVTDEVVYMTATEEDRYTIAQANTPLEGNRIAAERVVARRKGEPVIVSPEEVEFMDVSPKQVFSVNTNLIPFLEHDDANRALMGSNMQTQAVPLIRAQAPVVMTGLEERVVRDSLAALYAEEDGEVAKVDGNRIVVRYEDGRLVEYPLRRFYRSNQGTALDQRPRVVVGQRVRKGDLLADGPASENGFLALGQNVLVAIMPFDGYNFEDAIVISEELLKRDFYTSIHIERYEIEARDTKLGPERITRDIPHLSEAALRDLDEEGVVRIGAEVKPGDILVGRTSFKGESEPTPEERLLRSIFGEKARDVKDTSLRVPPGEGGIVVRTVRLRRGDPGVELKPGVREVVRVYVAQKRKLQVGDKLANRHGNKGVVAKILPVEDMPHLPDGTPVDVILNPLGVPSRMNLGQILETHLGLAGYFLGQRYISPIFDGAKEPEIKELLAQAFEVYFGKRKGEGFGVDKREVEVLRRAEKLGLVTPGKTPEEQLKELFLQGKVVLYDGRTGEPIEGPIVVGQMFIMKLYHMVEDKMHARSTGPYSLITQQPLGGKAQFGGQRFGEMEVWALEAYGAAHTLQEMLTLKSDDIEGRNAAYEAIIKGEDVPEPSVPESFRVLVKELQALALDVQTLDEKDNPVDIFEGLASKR

[Lys684]β-RNAP [8] = target: T6, [Lys684]β-RNAP (Escherichia coli, UniProt P0A8T7+P0A8V2, N684K); assay: Fluorescence-detected RNAP-Rif interaction assay, GE-resistant RNAP; type: binding
Experimental: as §1
(§3) For determination of association kinetics, 720 μl 2 nM [F^517]σ^70-RNAP holoenzyme and 0-2 μM GE in 40 mM Tris–HCl, pH 8.0, 100 mM NaCl, 10 mM MgCl2, 1 mM DTT, 0.02% Tween-20, and 5% glycerol was incubated 15 min at 24°C and then mixed with 30 μl 0.01–0.5 μM Rif in the same buffer at 24°C in a cuvette chamber with a mixing dead time ∼0.5 s, and fluorescence emission intensities were monitored for 30 min at 24°C. […]
as §2

[Asp565]β-RNAP = [Asp565]β-RNAP (Escherichia coli, UniProt P0A8T7+P0A8V2, E565D); assay: as above; type: binding
Experimental: as §1, §3, §2

E. coli RNAP core enzyme = target: T7, E. coli RNAP core enzyme (Escherichia coli, UniProt P0A8T7+P0A8V2); type: biochemical; details: 0.5 μM GE
T7 construct: purchased Epicentre, Madison, WI

Human RNAP I / II / III = assay: Radiochemical assay with human RNAP I/II/III (HeLa nuclear extract); type: biochemical
Experimental: Radiochemical assays with human RNAP I/II/III were performed essentially as in [Sawadogo and Roeder (1985)]. Reaction mixtures contained (20 µl): 0–100 µM GE, 8 U HeLaScribe Nuclear Extract (Promega, Madison, WI), 1 µg human placental DNA (Sigma–Aldrich), 400 μM ATP, 400 μM [α^32P]UTP (0.11 Bq/fmol), 400 μM CTP, 400 μM GTP, 50 mM Tris–HCl, pH 8.0, 7 mM HEPES-NaOH, 70 mM (NH4)2SO4, 50 mM KCl, 12 mM MgCl2, 5 mM DTT, 0.1 mM EDTA, 0.08 mM phenylmethylsulfonyl fluoride, and 16% glycerol. Reaction components other than DNA and NTPs were pre-incubated 10 min at 30°C, DNA was added and reaction mixtures were incubated 15 min at 30°C, NTPs were added and reaction mixtures were incubated 60 min at 30°C. Reaction mixtures were spotted on DE81 filter discs (Whatman, Kent, UK; pre-wetted with water) and incubated 1 min at room temperature. Filters were washed with 3 × 3 ml Na2HPO4, 2 × 3 ml water, and 3 ml ethanol, using a filter manifold (Hoefer, Holliston, MA). Filters were placed in scintillation vials containing 10 ml Scintiverse BD Cocktail (Thermo Fisher, Waltham, MA), and radioactivity was quantified by scintillation counting (LS6500; Beckman–Coulter, Brea, CA).
Half-maximal inhibitory concentrations (IC50s) were calculated by non-linear regression in SigmaPlot (SPSS, Chicago, IL).

[Lys684]β-RNAP [9] = target: T6, [Lys684]β-RNAP; assay: biochemical; details: GE-resistant RNAP [Lys684]β-RNAP
Escherichia coli RNAP = Escherichia coli RNAP (Escherichia coli, UniProt P0A8T7+P0A8V2); assay: biochemical; type: biochemical; details: wild-type E. coli RNAP
E. coli RNAP holoenzyme [10] = target: T3, E. coli RNAP holoenzyme; type: biochemical; details: 0.5 μM GE or 2.2 μM Rif; lacUV5(ICAP) promoter
E. coli D21f2tolC = assay: Resistance and cross-resistance levels, rpoB mutants from saturation mutagenesis (plasmid-borne), broth microdilution; type: cell-based, Escherichia coli
[11] = test system: Moraxella catarrhalis ATCC 25238; assay: Antibacterial activity, MIC by broth microdilution; type: cell-based; details: ATCC25238
Excerpt: (§4) Minimum inhibitory concentrations (MICs) were quantified using broth microdilution assays ([Clinical and Laboratory Standards Institute, 2009]), using a starting cell density of 3 × 10^4 cfu/ml, LB broth ([Sambrook and Russell, 2001]), and an air atmosphere for E. coli D21f2tolC (tolC:Tn10 rfa lac28 proA23 trp30 his51 rpsL173 ampC tsx81; strain with cell-envelope defects resulting in increased susceptibility to hydrophobic agents, including GE; Fralick and Burns-Keliher, 1994; unpublished data), and using a starting cell density of 3 × 10^4 cfu/ml, Bacto Todd Hewitt broth (TH broth; BD Biosciences, San Jose, CA), and a 7% CO2/6% O2/4% H2/83% N2 atmosphere for S. pyogenes and M. catarrhalis.

[12] = test system: Streptococcus pyogenes ATCC 12344; assay: Antibacterial activity, MIC by broth microdilution; type: cell-based; details: ATCC12344
Excerpt: as §4

[13] = test system: Escherichia coli D21f2tolC; assay: Antibacterial activity, MIC by broth microdilution; type: cell-based; details: starting cell density 3 × 10^4 cfu/ml
Excerpt: as §4

For `CC=C(C)C(=O)NCC1NC(=O)C(C(=O)O)NC(=O)C(O)CNC(=O)C(C(C)O)NC(=O)C(C(O)C(O)C(N)=O)NC(=O)C(C(C)C)NC(=O)C(CO)NC1=O` (stereo not shown) [GE, GE23077], the “resistance level (MIC/MICwild-type)” value (S. pyogenes; S. pyogenes rpoB 565 [525] Glu→Gly) was 32, the “resistance level (MIC/MICwild-type)” value (S. pyogenes; S. pyogenes rpoB 565 [525] Glu→Val) was 32 and the “resistance level (MIC/MICwild-type)” value (S. pyogenes; S. pyogenes rpoB 681 [643] Met→Lys) was 16. For the same compound, the “resistance level (MIC/MICwild-type)” value (S. pyogenes; S. pyogenes rpoB 684 [646] Asn→Ile) was greater than 32, the MICwild-type (S. pyogenes; wild-type S. pyogenes) was 250 µg/mL and the IC50 [1] was 0.1 µM. The “fold decrease of kon for Rif by GE” value ([2]; saturating GE) was roughly 20 fold, the “fold increase of Kd for Rif by GE” value ([2]; saturating GE) was roughly 80 fold and the “fold increase of koff for Rif by GE” value ([2]; saturating GE) was “fourfold”. For the same compound, the Ki ([2]; wild-type RNAP, 24°C, read-out: Ki,GE, equilibrium dissociation constant for inhibition of RNAP-Rif interaction by GE) was 0.006 µM, the “inhibition of first nucleotide addition, primer-dependent transcription initiation” value (E. coli RNAP holoenzyme [3]) was “inhibits the first nucleotide-addition step” and the “inhibition of nucleotide addition in transcription elongation, halted elongation complex” value (E. coli RNAP holoenzyme [4]) was “does not inhibit transcription elongation”. For the same compound, the “inhibition of first nucleotide addition, de novo transcription initiation” value (E. coli RNAP holoenzyme [5]) was “inhibits the first nucleotide-addition step”, the IC50 [6] was 0.02 µM and the IC50 [7] was 20 µM. For the same compound, the Ki ([Lys684]β-RNAP [8]) was greater than 2 µM, the Ki ([Asp565]β-RNAP) was greater than 2 µM and the “inhibition of single nucleotide addition, reconstituted elongation complex” value (E. coli RNAP core enzyme) was “does not inhibit single nucleotide addition”. The IC50 (Human RNAP I / II / III) was greater than 50 µM, the IC50 ([Lys684]β-RNAP [9]) was greater than 400 µM and the IC50 (Escherichia coli RNAP) was 0.02 µM. For the same compound, the MICwild-type was 500 µg/mL, the “inhibition of formation of RNAP-promoter open complex (RPo)” value (E. coli RNAP holoenzyme [10]) was “does not inhibit” and the “cross-resistance of Rif^R mutants to GE” value (E. coli D21f2tolC; Rif^R mutants) was “do not exhibit cross-resistance”. For the same compound, the “resistance, fold higher MIC, all six GE^R substitutions” value (E. coli D21f2tolC; all six GE^R substitutions) was “≥ fourfold”, the MIC [11] was 25 mg/L (≈ 31.1 µM) and the MIC [12] was 250 mg/L (≈ 311 µM). For the same compound, the MIC [13] was 250 mg/L (≈ 311 µM).
